Source: the supplement of paper PMC11451515

System: P12-Ichikawa
Test: cell viability relative to DMSO control; higher = less cytotoxic
Conditions: 48 h
Outline: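 Viability is expressed as a percentage of DMSO wells within each plate, and cell-free wells serve as background. Seeding densities in the 1536-well plates (5 μl) were 500 cells/well for NOMO1 or SEM leukemia cells and 1000 cells/well for P12-Ichikawa. Each line was adapted for at least four passages in each medium. Library compounds in DMSO were pin-dosed at 47 μM to 0.79 nM (11 points, threefold), and CellTiter-Glo One luminescence was read after 48 h at 37°C.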

[1] = HPLM + 10% dialyzed FBS, 0.000781 µM
[2] = HPLM + 10% dialyzed FBS, 0.00234 µM
[3] = HPLM + 10% dialyzed FBS, 0.00702 µM
[4] = HPLM + 10% dialyzed FBS, 0.0211 µM
[5] = HPLM + 10% dialyzed FBS, 0.0632 µM
[6] = HPLM + 10% dialyzed FBS, 0.19 µM
[7] = HPLM + 10% dialyzed FBS, 0.569 µM
[8] = HPLM + 10% dialyzed FBS, 1.71 µM
[9] = HPLM + 10% dialyzed FBS, 5.12 µM
[10] = HPLM + 10% dialyzed FBS, 15.4 µM
[11] = HPLM + 10% dialyzed FBS, 46.1 µM
[12] = RPMI 5 mM glucose + 10% FBS, 0.000781 µM
[13] = RPMI 5 mM glucose + 10% FBS, 0.00234 µM
[14] = RPMI 5 mM glucose + 10% FBS, 0.00702 µM
[15] = RPMI 5 mM glucose + 10% FBS, 0.0211 µM
[16] = RPMI 5 mM glucose + 10% FBS, 0.0632 µM
[17] = RPMI 5 mM glucose + 10% FBS, 0.19 µM
[18] = RPMI 5 mM glucose + 10% FBS, 0.569 µM
[19] = RPMI 5 mM glucose + 10% FBS, 1.71 µM
[20] = RPMI 5 mM glucose + 10% FBS, 5.12 µM
[21] = RPMI 5 mM glucose + 10% FBS, 15.4 µM
[22] = RPMI 5 mM glucose + 10% FBS, 46.1 µM
[23] = RPMI 5 mM glucose + 10% dialyzed FBS, 0.000781 µM
[24] = RPMI 5 mM glucose + 10% dialyzed FBS, 0.00234 µM
[25] = RPMI 5 mM glucose + 10% dialyzed FBS, 0.00702 µM
[26] = RPMI 5 mM glucose + 10% dialyzed FBS, 0.0211 µM
[27] = RPMI 5 mM glucose + 10% dialyzed FBS, 0.0632 µM
[28] = RPMI 5 mM glucose + 10% dialyzed FBS, 0.19 µM
[29] = RPMI 5 mM glucose + 10% dialyzed FBS, 0.569 µM
[30] = RPMI 5 mM glucose + 10% dialyzed FBS, 1.71 µM
[31] = RPMI 5 mM glucose + 10% dialyzed FBS, 5.12 µM
[32] = RPMI 5 mM glucose + 10% dialyzed FBS, 15.4 µM
[33] = RPMI 5 mM glucose + 10% dialyzed FBS, 46.1 µM

Structure (SMILES) | cell viability [1] [%] | cell viability [2] [%] | cell viability [3] [%] | cell viability [4] [%] | cell viability [5] [%] | cell viability [6] [%] | cell viability [7] [%] | cell viability [8] [%] | cell viability [9] [%] | cell viability [10] [%] | cell viability [11] [%] | cell viability [12] [%] | cell viability [13] [%] | cell viability [14] [%] | cell viability [15] [%] | cell viability [16] [%] | cell viability [17] [%] | cell viability [18] [%] | cell viability [19] [%] | cell viability [20] [%] | cell viability [21] [%] | cell viability [22] [%] | cell viability [23] [%] | cell viability [24] [%] | cell viability [25] [%] | cell viability [26] [%] | cell viability [27] [%] | cell viability [28] [%] | cell viability [29] [%] | cell viability [30] [%] | cell viability [31] [%] | cell viability [32] [%] | cell viability [33] [%]
COc1ccc(C2(C#N)CCC(C(=O)O)CC2)cc1OC1CCCC1 (configuration not stated) | 96.2 | 105 | 108 | 108 | 104 | 107 | 103 | 99.2 | 105 | 108 | 109 | 94.8 | 97.6 | 96.6 | 95.2 | 96.8 | 101 | 106 | 103 | 97.9 | 103 | 96.2 | 91.5 | 95.6 | 92.8 | 93.4 | 101 | 102 | 100 | 108 | 94.3 | 100 | 87.9
Cc1cccc(-c2[nH]c(C(C)(C)C)nc2-c2ccc3c(c2)OCO3)n1 | 105 | 109 | 110 | 107 | 102 | 105 | 110 | 105 | 100 | 17.5 | 11.1 | 98.4 | 102 | 92.8 | 106 | 96.9 | 97 | 94.1 | 96.2 | 98.6 | 14 | 8.01 | 102 | 112 |  | 108 | 101 | 101 | 106 | 95.9 | 96 | 37.1 | 19.6
CCOCC(O)COc1ccc(NC(=O)CC[S+](C)C)cc1 (configuration not stated) | 87.3 | 82.5 | 87.9 | 96 | 91.9 | 88.1 | 98.5 | 98 | 93.7 | 99 | 95 | 88.2 | 90.5 | 93 | 97.9 | 91.3 | 95.9 | 95.9 | 97.3 | 94.4 | 104 | 92.3 | 85.3 | 74.7 | 88.7 | 88.8 | 82.7 | 91.3 | 89.5 | 84.6 | 85.6 | 88 | 78.8
CC(C)c1c(C(=O)Nc2ccccc2)c(-c2ccccc2)c(-c2ccc(F)cc2)n1CC[C@@H](O)C[C@@H](O)CC(=O)[O-] | 101 | 102 | 106 | 99.4 | 98.6 | 97.4 | 106 | 91.2 | 85.7 | 85.2 | 47.2 | 97.5 | 92.6 | 99.6 | 94.7 | 97.1 | 87.9 | 93.3 | 87.6 | 68.4 | 56.3 | 23.2 | 97.4 | 91.9 | 91.2 | 92 | 95.7 | 90.5 | 89.5 | 83.8 | 85.1 | 67.6 | 36.3
CC[C@H]1CN2CCc3cc(OC)c(OC)cc3[C@@H]2C[C@@H]1C[C@H]1NCCc2cc(OC)c(OC)cc21 | 111 | 116 | 108 | 103 | 92.5 | 77.1 | 39.7 | 25.7 | 28.8 | 21.1 | 16.1 | 96.8 | 107 | 104 | 102 | 93.3 | 69.4 | 28.9 | 16.6 | 14.8 | 13.4 | 11.1 | 103 | 113 | 109 | 108 | 103 | 80.3 | 56.5 | 29.6 | 19.4 | 14.1 | 13.6
OCCN(CCO)c1nc(N2CCCCC2)c2nc(N(CCO)CCO)nc(N3CCCCC3)c2n1 | 113 | 110 | 118 | 114 | 114 | 113 | 109 | 107 | 107 | 98 | 75 | 108 | 108 | 113 | 111 | 119 | 113 | 110 | 106 | 109 | 109 | 68.2 | 113 | 105 | 111 | 106 | 117 | 106 | 105 | 101 | 103 | 101 | 58.4
Cn1cnc([N+](=O)[O-])c1Sc1ncnc2nc[nH]c12 | 95.4 | 97 | 98.4 | 95.7 | 102 | 97.7 | 96.5 | 86 | 36.2 | 28.4 | 29.2 | 81.8 | 88.5 | 82.1 | 88.5 | 99.2 | 95.1 | 90.9 | 79.9 | 64.5 | 28.3 | 19.4 | 88.9 | 95.3 | 98.1 | 91 | 97.2 | 92.1 | 88.5 | 72.6 | 63.2 | 21.2 | 13.7
Clc1ccccc1C(c1ccccc1)(c1ccccc1)n1ccnc1 | 108 | 114 | 107 | 115 | 108 | 110 | 107 | 96.7 | 100 | 91.7 | 74.8 |  |  |  |  |  |  |  |  |  |  |  | 103 | 114 | 112 | 108 | 106 | 110 | 103 | 102 | 88.6 | 93.8 | 58.5
